Assay results: patent publication US6706663B2, “Herbicidal 3-heterocyclic substituted benzisothiazole and benzisoxazole compounds” (Wyeth, priority 2000, dated 2004)

Columns and labels:
[1] = test system: SETVI (Setaria viridis); assay: Postemergence herbicidal evaluation; assay type: in vivo, (L.) Beau; details: for SETVI herbicidal rating: postemergence
How it was run: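 Visual injury score (0-9: stand, vigor, malformation, size, chlorosis, overall appearance vs untreated control) taken four to five weeks post-spray. Two-week-old seedlings received about 0.0040 to 1.000 kg/ha active compound in acetone/water with 0.5% TWEEN 20.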

[2] = test system: ECHORC (Echinochloa oryzoides); assay: Flooded paddy, preemergence weed control; assay type: in vivo, Echinochloa oryzoides (Ard.) Fritsch.; details: rated 3-4 weeks after treatment, 0-9 rating scale
How it was run: (§1)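 Under paddy conditions, seeds or vegetative propagules go into the top 0.5 cm of silt loam; the soil is then flooded to 1.5–3 cm and kept so. Treated pots stay in a greenhouse; response is rated 0-9 visually versus control.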

[3] = test system: ORYSAT (Rice, Tebonnet); assay: Preemergence herbicidal evaluation; assay type: in vivo, Oryza sativa, (L.) Tebonnet; details: rated 4-5 weeks after treatment
[4] = test system: SAGPY (Sagittaria pygmaea); assay: Flooded paddy, preemergence weed control; assay type: in vivo, L.; details: rated 3-4 weeks after treatment, 0-9 rating scale
How it was run: as §1

[5] = test system: GALAP (Galium aparine); assay: Preemergence herbicidal evaluation; assay type: in vivo; details: rated 4-5 weeks after treatment
How it was run: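 Preemergence soil spray, aq. acetone; greenhouse; visual 0–9 score vs control at 4–5 wk.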

[6] = test system: TRZAWR (Wheat, Winter, cv Riband); assay: Postemergence herbicidal evaluation; assay type: in vivo, Triticum aestivum; details: for TRZAWR herbicidal rating: postemergence
How it was run: (§2)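 Visual 0–9 injury scores versus control plants, covering stand, vigour, malformation, size, chlorosis and general appearance, taken four to five weeks post-spray and averaged over replicate tests. Plants were sprayed at roughly two weeks old and held on greenhouse benches.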

[7] = test system: ORYSAT (Rice, Tebonnet); assay: Flooded paddy, post-transplant and postemergence rice tolerance; assay type: in vivo, Oryza sativa, (L.) Tebonnet; details: post-transplant rice, rated 3-4 weeks after treatment
Description: (§3) Results of herbicide evaluation are expressed on a rating scale (0-9). The scale is based upon a visual observation of plant stand, vigor, malformation, size, chlorosis and overall plant appearance as compared with a control.
(§4) Plastic containers containing weeds which are 3 to 5 cm tall and rice seedlings at the 1.5 to 2.5 leaf stage are flooded with water. The water is maintained at 1.5 to 3 cm above the soil surface for the duration of the experiment. Test compounds are applied as aqueous/acetone mixtures 50/50 v/v directly into the flood water to provide the equivalent of about 0.0320 to 0.2500 kg/ha of active ingredient. The treated containers are placed on greenhouse benches and cared for in accordance with conventional greenhouse procedures. Three to four weeks after treatment, the test is terminated and each container is examined and herbicidal effect rated according to the rating system provided in Example 87. The compounds evaluated are identified in Example 87 and plant species used are identified in Example 89.

[8] = test system: ECHCG (Echinochloa crus-galli); assay: Postemergence herbicidal evaluation; assay type: in vivo, (L.) Beau; details: for ECHCG herbicidal rating: postemergence
How it was run: as §2

[9] = test system: CYPSE (Cyperus serotinus); assay: Flooded paddy, preemergence weed control; assay type: in vivo, Rottb.; details: rated 3-4 weeks after treatment, 0-9 rating scale
How it was run: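 Seeds or propagules were planted 0.5 cm deep in silt loam and flooded to 1.5–3 cm. Compounds in 50/50 v/v aqueous/acetone were pipetted into the flood water at about 0.0080 to 0.1250 kg/ha. After 3–4 weeks in the greenhouse, effect was rated visually on a 0–9 scale versus untreated control.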

[10] = test system: SAGPY (Sagittaria pygmaea); assay: Flooded paddy, postemergence weed control; assay type: in vivo, L.; details: postemergence weeds, rated 3-4 weeks after treatment
Description: as §3, §4

[11] = test system: ZEAMX (Corn, Field); assay: Postemergence herbicidal evaluation; assay type: in vivo, Zea mays, L.; details: for ZEAMX herbicidal rating: postemergence
How it was run: as §2

[12] = test system: MOOVA (Monochoria vaginalis); assay: Flooded paddy, postemergence weed control; assay type: in vivo, Presl.; details: postemergence weeds, rated 3-4 weeks after treatment
Description: as §3, §4

[13] = test system: GALAP (Galium aparine); assay: Postemergence herbicidal evaluation; assay type: in vivo; details: for GALAP herbicidal rating: postemergence
How it was run: as §2

[14] = test system: ECHORC (Echinochloa oryzoides); assay: Flooded paddy, postemergence weed control; assay type: in vivo, Echinochloa oryzoides (Ard.) Fritsch.; details: postemergence weeds, rated 3-4 weeks after treatment
Description: as §3, §4

[15] = test system: CYPSE (Cyperus serotinus); assay: Flooded paddy, postemergence weed control; assay type: in vivo, Rottb.; details: postemergence weeds, rated 3-4 weeks after treatment
Description: as §3, §4

Cn1c(C(F)(F)F)cc(=O)n(-c2ccc3snc(-c4nccs4)c3c2)c1=O [Compound 53, 1-methyl-3-[3-(2-thiazolyl)-1,2-benzisothiazol-5-yl]-6-(trifluoromethyl)uracil]
SETVI herbicidal rating ([1]; rate 0.0320 kg/ha): 2.5 | SETVI herbicidal rating ([1]; rate 0.0620 kg/ha): 5.5 | SETVI herbicidal rating ([1]; rate 0.1250 kg/ha): 9.0 | herbicidal rating, ECHORC ([2]; rate 0.0080 kg/ha): 3.0 | herbicidal rating, ECHORC ([2]; rate 0.0320 kg/ha): 9.0 | herbicidal rating, ECHORC ([2]; rate 0.1250 kg/ha): 9.0 | Preemergence herbicidal rating ORYSAT ([3]; Rate 0.0620 kg/ha): 1.0 | Preemergence herbicidal rating ORYSAT ([3]; Rate 0.1250 kg/ha): 3.0 | Preemergence herbicidal rating ORYSAT ([3]; Rate 0.2500 kg/ha): 5.0 | herbicidal rating, SAGPY ([4]; rate 0.0080 kg/ha): 0.0 | herbicidal rating, SAGPY ([4]; rate 0.0320 kg/ha): 4.3 | herbicidal rating, SAGPY ([4]; rate 0.1250 kg/ha): 9.0 | Preemergence herbicidal rating GALAP ([5]; Rate 0.0620 kg/ha): 8.0 | Preemergence herbicidal rating GALAP ([5]; Rate 0.1250 kg/ha): 8.0 | Preemergence herbicidal rating GALAP ([5]; Rate 0.2500 kg/ha): 9.0 | TRZAWR herbicidal rating ([6]; rate 0.0320 kg/ha): 3.3 | TRZAWR herbicidal rating ([6]; rate 0.0620 kg/ha): 4.0 | TRZAWR herbicidal rating ([6]; rate 0.1250 kg/ha): 4.0 | herbicide rating (0-9) ORYSAT (rice tolerance) ([7]; 0.0320 kg/ha into flood water): 2.0 | herbicide rating (0-9) ORYSAT (rice tolerance) ([7]; 0.0620 kg/ha into flood water): 4.0 | herbicide rating (0-9) ORYSAT (rice tolerance) ([7]; 0.1250 kg/ha into flood water): 6.0 | ECHCG herbicidal rating ([8]; rate 0.0320 kg/ha): 1.0 | ECHCG herbicidal rating ([8]; rate 0.0620 kg/ha): 2.0 | ECHCG herbicidal rating ([8]; rate 0.1250 kg/ha): 1.0 | herbicidal rating, CYPSE ([9]; rate 0.0320 kg/ha): 3.0 | herbicidal rating, CYPSE ([9]; rate 0.1250 kg/ha): 9.0 | herbicide rating (0-9) SAGPY ([10]; 0.0320 kg/ha into flood water): 0.0 | herbicide rating (0-9) SAGPY ([10]; 0.0620 kg/ha into flood water): 0.0 | herbicide rating (0-9) SAGPY ([10]; 0.1250 kg/ha into flood water): 0.0 | ZEAMX herbicidal rating ([11]; rate 0.0320 kg/ha): 4.5 | ZEAMX herbicidal rating ([11]; rate 0.0620 kg/ha): 5.0 | ZEAMX herbicidal rating ([11]; rate 0.1250 kg/ha): 5.5 | herbicide rating (0-9) MOOVA ([12]; 0.0320 kg/ha into flood water): 0.0 | herbicide rating (0-9) MOOVA ([12]; 0.0620 kg/ha into flood water): 0.0 | herbicide rating (0-9) MOOVA ([12]; 0.1250 kg/ha into flood water): 2.0 | GALAP herbicidal rating ([13]; rate 0.0320 kg/ha): 2.5 | GALAP herbicidal rating ([13]; rate 0.0620 kg/ha): 3.0 | GALAP herbicidal rating ([13]; rate 0.1250 kg/ha): 7.0 | herbicide rating (0-9) ECHORC ([14]; 0.0320 kg/ha into flood water): 2.0 | herbicide rating (0-9) ECHORC ([14]; 0.0620 kg/ha into flood water): 7.0 | herbicide rating (0-9) ECHORC ([14]; 0.1250 kg/ha into flood water): 8.0 | herbicide rating (0-9) CYPSE ([15]; 0.0320 kg/ha into flood water): 0.0 | herbicide rating (0-9) CYPSE ([15]; 0.0620 kg/ha into flood water): 8.0 | herbicide rating (0-9) CYPSE ([15]; 0.1250 kg/ha into flood water): 8.0

Cc1cc(C)c(-c2nsc3ccc(-n4c(=O)cc(C(F)(F)F)n(C)c4=O)cc23)s1 [Compound 27, 3-[3-(3,5-dimethyl-2-thienyl)-1,2-benzisothiazol-5-yl]-1-methyl-6-(trifluoromethyl)uracil]
Postemergence herbicidal rating, SETVI ([1]; rate 0.0320 kg/ha): 7.0 | Postemergence herbicidal rating, SETVI ([1]; rate 0.0620 kg/ha): 9.0 | herbicidal rating, ECHORC ([2]; rate 0.0080 kg/ha): 6.5 | herbicidal rating, ECHORC ([2]; rate 0.0320 kg/ha): 9.0 | herbicidal rating, ECHORC ([2]; rate 0.1250 kg/ha): 9.0 | ORYSAT preemergence herbicidal rating ([3]; Rate 0.0620 kg/ha): 1.0 | ORYSAT preemergence herbicidal rating ([3]; Rate 0.1250 kg/ha): 2.0 | ORYSAT preemergence herbicidal rating ([3]; Rate 0.2500 kg/ha): 1.0 | herbicidal rating, SAGPY ([4]; rate 0.0080 kg/ha): 0.0 | herbicidal rating, SAGPY ([4]; rate 0.0320 kg/ha): 1.7 | herbicidal rating, SAGPY ([4]; rate 0.1250 kg/ha): 8.3 | GALAP preemergence herbicidal rating ([5]; Rate 0.0620 kg/ha): 9.0 | GALAP preemergence herbicidal rating ([5]; Rate 0.1250 kg/ha): 7.0 | GALAP preemergence herbicidal rating ([5]; Rate 0.2500 kg/ha): 8.0 | Postemergence herbicidal rating, TRZAWR ([6]; rate 0.0320 kg/ha): 5.0 | Postemergence herbicidal rating, TRZAWR ([6]; rate 0.0620 kg/ha): 5.5 | herbicide rating (0-9) ORYSAT (rice tolerance) ([7]; 0.0320 kg/ha into flood water): 2.0 | herbicide rating (0-9) ORYSAT (rice tolerance) ([7]; 0.0620 kg/ha into flood water): 4.0 | herbicide rating (0-9) ORYSAT (rice tolerance) ([7]; 0.1250 kg/ha into flood water): 6.0 | Postemergence herbicidal rating, ECHCG ([8]; rate 0.0320 kg/ha): 4.0 | Postemergence herbicidal rating, ECHCG ([8]; rate 0.0620 kg/ha): 5.0 | herbicidal rating, CYPSE ([9]; rate 0.0080 kg/ha): 0.0 | herbicidal rating, CYPSE ([9]; rate 0.0320 kg/ha): 4.5 | herbicidal rating, CYPSE ([9]; rate 0.1250 kg/ha): 6.0 | herbicide rating (0-9) SAGPY ([10]; 0.0320 kg/ha into flood water): 0.0 | herbicide rating (0-9) SAGPY ([10]; 0.0620 kg/ha into flood water): 0.0 | herbicide rating (0-9) SAGPY ([10]; 0.1250 kg/ha into flood water): 0.0 | Postemergence herbicidal rating, ZEAMX ([11]; rate 0.0320 kg/ha): 5.0 | Postemergence herbicidal rating, ZEAMX ([11]; rate 0.0620 kg/ha): 5.0 | herbicide rating (0-9) MOOVA ([12]; 0.0320 kg/ha into flood water): 6.0 | herbicide rating (0-9) MOOVA ([12]; 0.0620 kg/ha into flood water): 9.0 | herbicide rating (0-9) MOOVA ([12]; 0.1250 kg/ha into flood water): 9.0 | Postemergence herbicidal rating, GALAP ([13]; rate 0.0320 kg/ha): 2.0 | Postemergence herbicidal rating, GALAP ([13]; rate 0.0620 kg/ha): 4.0 | herbicide rating (0-9) ECHORC ([14]; 0.0320 kg/ha into flood water): 0.0 | herbicide rating (0-9) ECHORC ([14]; 0.0620 kg/ha into flood water): 7.0 | herbicide rating (0-9) ECHORC ([14]; 0.1250 kg/ha into flood water): 9.0 | herbicide rating (0-9) CYPSE ([15]; 0.0320 kg/ha into flood water): 0.0 | herbicide rating (0-9) CYPSE ([15]; 0.0620 kg/ha into flood water): 0.0 | herbicide rating (0-9) CYPSE ([15]; 0.1250 kg/ha into flood water): 4.0
